From the NIST ThermoML archive (doi:10.1021/je500502a)
± gives the expanded uncertainty stated by the source.

Key:
[1] = 101.33 kPa, Liquid; for electrical conductivity: PICO digital conductivity meter; for speed of sound: Sing-around technique in a fixed-path interferometer; for mass density: Vibrating tube method
[2] = refractive index (Na D-line) (dimensionless); details: 101.33 kPa, Liquid, Standard Abbe refractometry

CCn1cc[n+](C)c1.O=S(=O)([N-]S(=O)(=O)C(F)(F)F)C(F)(F)F
Details | electrical conductivity, [1] [S/m] | mass density, [1] [kg/m3] | refractive index, [2] | speed of sound, [1] [m/s]
293.15 K | 0.854 ± 0.014 | 1521.47 ± 2.1 | 1.42425 ± 0.0006 | 1251.2 ± 2.1
298.15 K | 0.947 ± 0.015 | 1516.39 ± 2.1 | 1.42286 ± 0.0006 | 1240.3 ± 2.1
303.15 K | 1.07 ± 0.017 | 1511.32 ± 2.1 | 1.42142 ± 0.0006 | 1229.4 ± 2.1
308.15 K | 1.19 ± 0.019 | 1506.27 ± 2.1 | 1.41997 ± 0.0006 | 1218.5 ± 2.1
313.15 K | 1.33 ± 0.021 | 1501.23 ± 2 | 1.4185 ± 0.0006 | 1207.8 ± 2.1
318.15 K | 1.48 ± 0.024 | 1496.21 ± 2 | 1.41705 ± 0.00061 | 1197.2 ± 2.1
323.15 K | 1.64 ± 0.026 | 1491.21 ± 2 | 1.41555 ± 0.00061 | 1186.7 ± 2.1
